{
  "source": "paper PMC10138721",
  "about": "“Investigation of the Compatibility between Warheads and Peptidomimetic Sequences of Protease Inhibitors—A Comprehensive Reactivity and Selectivity Study” (International Journal of Molecular Sciences, 2023)",
  "type_in_all_cases": "biochemical",
  "key": {"[1]": {"target": "rhodesain (Trypanosoma brucei rhodesiense, UniProt Q95PM0)", "sequence (Q95PM0 entry or part of it)": "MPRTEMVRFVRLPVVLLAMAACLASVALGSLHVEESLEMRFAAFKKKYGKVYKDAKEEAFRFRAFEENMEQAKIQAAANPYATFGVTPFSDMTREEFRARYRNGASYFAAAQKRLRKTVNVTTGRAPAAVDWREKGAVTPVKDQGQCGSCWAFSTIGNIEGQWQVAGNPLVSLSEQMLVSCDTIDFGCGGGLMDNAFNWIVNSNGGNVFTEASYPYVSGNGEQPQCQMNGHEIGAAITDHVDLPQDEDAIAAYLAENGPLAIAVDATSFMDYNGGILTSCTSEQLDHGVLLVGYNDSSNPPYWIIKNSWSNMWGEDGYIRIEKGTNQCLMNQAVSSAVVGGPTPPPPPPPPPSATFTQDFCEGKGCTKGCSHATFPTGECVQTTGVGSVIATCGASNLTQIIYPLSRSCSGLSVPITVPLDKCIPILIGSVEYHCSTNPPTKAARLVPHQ", "experiment": "Fluorometric inhibition assay, rhodesain", "settings": "for kinact: read-out: kinact, Rhodesain"}, "[2]": {"target": "T1, human cathepsin S (CatS) (Homo sapiens, UniProt P25774)", "T1 construct": "purchased Sigma Aldrich", "T1 sequence (P25774 115-331)": "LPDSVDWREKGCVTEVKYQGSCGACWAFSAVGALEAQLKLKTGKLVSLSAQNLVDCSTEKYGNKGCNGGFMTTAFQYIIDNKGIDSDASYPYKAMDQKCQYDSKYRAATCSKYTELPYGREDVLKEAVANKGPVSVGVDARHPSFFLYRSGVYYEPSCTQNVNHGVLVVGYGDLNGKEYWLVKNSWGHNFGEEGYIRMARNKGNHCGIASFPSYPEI", "experiment": "Fluorometric inhibition assay, cathepsin S", "settings": "for kinact: read-out: kinact, CatS"}, "[3]": {"target": "SARS-CoV-2 main protease (M^pro) (Severe acute respiratory syndrome coronavirus 2, UniProt P0DTD1)", "experiment": "Fluorometric (FRET) inhibition assay, SARS-CoV-2 M^pro", "settings": "initial screen at 20 µM, cut-off 80% inhibition"}},
  "note": "Where two headings read alike, the source gives them in different places.",
  "data": [
    {"compound": "O=C(N[C@@H](Cc1ccccc1)C(=O)N[C@@H](CCc1ccccc1)C(=O)N[C@H]1CN(c2ccccc2)C1=O)OCc1ccccc1", "note": "[compound 24]", "values": [
      {"measurement": "activity against rhodesain, in words", "setting": "[1]", "value": "inactive at 20 µM"}
    ]},
    {"compound": "CCOC(=O)C=CC(=O)C(COCc1ccccc1)NC(=O)C(CC1CCCCC1)NC(=O)N1CCOCC1", "note": "(stereo not shown) [compound 40]", "values": [
      {"measurement": "Ki", "setting": "[2]; Ki, CatS", "value": "22 ± 4", "unit": "nM"},
      {"measurement": "kinact", "setting": "[2]", "value": "0.0023 ± 7e-05", "unit": "s⁻¹"},
      {"measurement": "Ki", "setting": "[1]; Ki, Rhodesain", "value": "35 ± 9", "unit": "nM"},
      {"measurement": "kinact", "setting": "[1]", "value": "0.003 ± 0.0001", "unit": "s⁻¹"}
    ]},
    {"compound": "COc1cccc2[nH]c(C(=O)N[C@@H](CC(C)C)C(=O)N[C@@H](C[C@@H]3CCNC3=O)C(=O)NC3CN(c4ccccc4)C3=O)cc12", "note": "(stereo partly shown) [compound 96]", "values": [
      {"measurement": "activity against M^pro, in words", "setting": "[3]", "value": "inactive at 20 µM"}
    ]},
    {"compound": "CC(=O)NCC(=O)NC(C(=O)N[C@@H](C)C(=O)N[C@H](/C=C(\\F)S(=O)(=O)c1ccccc1)CCCNC(=N)N)[C@H](C)O", "note": "(stereo partly shown) [compound 107]", "values": [
      {"measurement": "activity against CatS, in words", "setting": "[2]", "value": "not active at 20 µM"},
      {"measurement": "activity against rhodesain, in words", "setting": "[1]", "value": "inactive"}
    ]},
    {"compound": "O=C(N[C@@H](Cc1ccccc1)C(=O)N[C@H](/C=C/S(=O)(=O)c1ccccc1)CCc1ccccc1)OCc1ccccc1", "note": "[compound 16]", "values": [
      {"measurement": "Ki", "setting": "[2]; pKi, Cathepsin S inhibition", "value": 1, "unit": "nM"},
      {"measurement": "kinact", "setting": "[2]", "value": "0.0037 ± 0.0006", "unit": "s⁻¹"},
      {"measurement": "Ki", "setting": "[1]; Ki, Rhodesain", "value": "20 ± 2", "unit": "nM"},
      {"measurement": "Ki", "setting": "[1]; pKi, Rhodesain inhibition", "value": 20, "unit": "nM"},
      {"measurement": "kinact", "setting": "[1]", "value": "0.005 ± 0.0001", "unit": "s⁻¹"}
    ]},
    {"compound": "CCOC(=O)/C=C/C(=O)[C@H](C[C@@H]1CCNC1=O)NC(=O)[C@H](CC(C)C)NC(=O)c1cc2c(OC)cccc2[nH]1", "note": "[compound 81]", "values": [
      {"measurement": "activity against CatS, in words", "setting": "[2]; initial screen at 20 µM, cut-off 80% inhibition", "value": "essentially inactive"},
      {"measurement": "Ki", "setting": "[1]; Table S1; a) calculated from IC50 with Cheng–Prusoff, irreversible inhibitors from kobs fits, n.a. = not active at 20 µM, read-out: Ki, Rhodesain", "value": "99 ± 24", "unit": "nM"},
      {"measurement": "kinact", "setting": "[1]; Table S1, irreversible inhibitors", "value": "0.006 ± 0.0009", "unit": "s⁻¹"}
    ]},
    {"compound": "N#C[C@H](CCc1ccccc1)NC(=O)[C@H](Cc1ccccc1)NC(=O)OCc1ccccc1", "note": "[compound 25]", "values": [
      {"measurement": "Ki", "setting": "[2]; Ki, CatS", "value": "136 ± 12", "unit": "nM"},
      {"measurement": "Ki", "setting": "[1]; Ki, Rhodesain", "value": "88 ± 17.4", "unit": "nM"}
    ]},
    {"compound": "CCOC(=O)/C=C/C(=O)[C@H](CCc1ccccc1)NC(=O)[C@H](Cc1ccccc1)NC(=O)OCc1ccccc1", "note": "[compound 22]", "values": [
      {"measurement": "Ki", "setting": "[2]; Ki, CatS", "value": "18 ± 3", "unit": "nM"},
      {"measurement": "kinact", "setting": "[2]", "value": "0.0022 ± 0.0001", "unit": "s⁻¹"},
      {"measurement": "Ki", "setting": "[1]; Ki, Rhodesain", "value": "79 ± 7", "unit": "nM"},
      {"measurement": "kinact", "setting": "[1]", "value": "0.008 ± 0.001", "unit": "s⁻¹"}
    ]},
    {"compound": "O=C(N[C@@H](Cc1ccccc1)C(=O)N[C@H](/C=C(\\F)S(=O)(=O)c1ccccc1)CCc1ccccc1)OCc1ccccc1", "note": "[compound 17]", "values": [
      {"measurement": "Ki", "setting": "[2]; Ki, CatS", "value": "966 ± 104", "unit": "nM"},
      {"measurement": "Ki", "setting": "[2]; pKi, Cathepsin S inhibition", "value": 1000, "unit": "nM"},
      {"measurement": "Ki", "setting": "[1]; Ki, Rhodesain", "value": "3570 ± 437", "unit": "nM"}
    ]},
    {"compound": "N#CC(COCc1ccccc1)NC(=O)C(CC1CCCCC1)NC(=O)N1CCOCC1", "note": "(stereo not shown) [compound 30]", "values": [
      {"measurement": "Ki", "setting": "[1]; Ki, Rhodesain", "value": "21 ± 2", "unit": "nM"}
    ]},
    {"compound": "CC(C)C[C@@H](/C=C/S(=O)(=O)c1ccccc1)NC(=O)[C@H](Cc1ccccc1)NC(=O)c1cnccn1", "note": "[compound 58]", "values": [
      {"measurement": "Ki", "setting": "[2]; Ki, CatS", "value": "126 ± 71", "unit": "nM"},
      {"measurement": "kinact", "setting": "[2]", "value": "0.013 ± 0.002", "unit": "s⁻¹"},
      {"measurement": "Ki", "setting": "[1]; Ki, Rhodesain", "value": "331 ± 41", "unit": "nM"},
      {"measurement": "kinact", "setting": "[1]", "value": "0.019 ± 0.001", "unit": "s⁻¹"}
    ]},
    {"compound": "O=C(NC1CN(c2ccccc2)C1=O)C(COCc1ccccc1)NC(=O)C(CC1CCCCC1)NC(=O)N1CCOCC1", "note": "(stereo not shown) [compound 45]", "values": [
      {"measurement": "Ki", "setting": "[2]; Ki, CatS", "value": "860 ± 130", "unit": "nM"},
      {"measurement": "kinact", "setting": "[2]", "value": "0.00046 ± 2e-05", "unit": "s⁻¹"}
    ]},
    {"compound": "O=C(NC(C=C(F)S(=O)(=O)c1ccccc1)COCc1ccccc1)C(CC1CCCCC1)NC(=O)N1CCOCC1", "note": "(stereo not shown) [compound 36]", "values": [
      {"measurement": "Ki", "setting": "[2]; Ki, CatS", "value": "3210 ± 612", "unit": "nM"}
    ]},
    {"compound": "O=C(NC(C=C[N+](=O)[O-])COCc1ccccc1)C(CC1CCCCC1)NC(=O)N1CCOCC1", "note": "(stereo not shown) [compound 49]", "values": [
      {"measurement": "Ki", "setting": "[2]; Ki, CatS", "value": "12 ± 1", "unit": "nM"},
      {"measurement": "Ki", "setting": "[1]; pKi, Rhodesain inhibition", "value": 2, "unit": "nM"}
    ]},
    {"compound": "O=C(N[C@@H](Cc1ccccc1)C(=O)N[C@H](/C=C/[N+](=O)[O-])CCc1ccccc1)OCc1ccccc1", "note": "[compound 13]", "values": [
      {"measurement": "Ki", "setting": "[2]; Ki, CatS", "value": "201 ± 93", "unit": "nM"},
      {"measurement": "Ki", "setting": "[1]; Ki, Rhodesain", "value": "0.06 ± 0.006", "unit": "nM"}
    ]},
    {"compound": "CC(=O)NCC(=O)NC(C(=O)N[C@@H](C)C(=O)N[C@H](/C=C/S(=O)(=O)c1ccccc1)CCCNC(=N)N)[C@H](C)O", "note": "(stereo partly shown) [compound 106]", "values": [
      {"measurement": "activity against CatS, in words", "setting": "[2]", "value": "not active at 20 µM"},
      {"measurement": "activity against rhodesain, in words", "setting": "[1]", "value": "inactive"}
    ]},
    {"compound": "O=C(NC(COCc1ccccc1)C(=O)c1nc2ccccc2s1)C(CC1CCCCC1)NC(=O)N1CCOCC1", "note": "(stereo not shown) [compound 42]", "values": [
      {"measurement": "Ki", "setting": "[2]; Ki, CatS", "value": "233 ± 24", "unit": "nM"},
      {"measurement": "Ki", "setting": "[2]; pKi, Cathepsin S inhibition", "value": 316, "unit": "nM"},
      {"measurement": "activity against rhodesain, in words", "setting": "[1]", "value": "submicromolar affinity"},
      {"measurement": "Ki", "setting": "[1]; Ki, Rhodesain", "value": "324 ± 89", "unit": "nM"}
    ]},
    {"compound": "O=C(N[C@@H](Cc1ccccc1)C(=O)N[C@@H](CCc1ccccc1)C(=O)c1nc2ccccc2s1)OCc1ccccc1", "note": "[compound 18]", "values": [
      {"measurement": "activity against rhodesain, in words", "setting": "[1]", "value": "inactive at 20 µM"}
    ]},
    {"compound": "COc1cccc2[nH]c(C(=O)N[C@@H](CC(C)C)C(=O)N[C@@H](C[C@@H]3CCNC3=O)C(=O)c3nc4ccccc4s3)cc12", "note": "[compound 90]", "values": [
      {"measurement": "activity against M^pro, in words", "setting": "[3]", "value": "displayed inhibitory activity"}
    ]},
    {"compound": "O=C(NC(C=CS(=O)(=O)c1ccccc1)COCc1ccccc1)C(CC1CCCCC1)NC(=O)N1CCOCC1", "note": "(stereo not shown) [compound 35]", "values": [
      {"measurement": "Ki", "setting": "[2]; pKi, Cathepsin S inhibition", "value": 3.16, "unit": "nM"},
      {"measurement": "kinact", "setting": "[2]", "value": "0.0202 ± 0.0006", "unit": "s⁻¹"},
      {"measurement": "Ki", "setting": "[1]; Ki, Rhodesain", "value": "22 ± 2", "unit": "nM"},
      {"measurement": "kinact", "setting": "[1]", "value": "0.006 ± 0.0004", "unit": "s⁻¹"}
    ]}
  ]
}
